In patent US20140099354A1, “BIOPASSIVATING MEMBRANE STABILIZATION BY MEANS OF NITROCARBOXYLIC ACID-CONTAINING PHOSPHOLIPIDS IN PREPARATIONS AND COATINGS” (priority 2011, published 2014):
Blank lines part the entries; values can stand above or below the compound they belong to.

Assays:
[1] = Abrasion stability and traction work load of coated balloon catheters; type: physicochemical
Description: Balloon catheters were coated by means of the Langmuir-Schaefer procedure where the balloon segment was aligned longitudinally and coaxial to the solution surface, dipping into the liquid for approx. 1 mm over the entire length. Then the catheter was slowly rotated around its axis 5 times. Phospholipids were dissolved at a concentration of 3 mmol in an ion-free aqueous solution at 50° C. The solution was cooled and given to the coating solution then. In case of incomplete dissolution of the phospholipids or if they separated when cooled, DMSO was added at a concentration of up to 20 vol.-%, preferably up to 10 vol.-%. After coating, the catheters were vacuum dried for 8 hours in order to remove residual solvent.
The tubing was filled with a 10% human albumin solution at a temperature of 35° C. The cable system, which had previously been brought through the tubing was connected to the catheter tip and tracked outside the tubing by reversing pulleys, which allowed exactly vertically traction of the cable that was connected to a motorized winch. The winch was mounted on a digital precision balance. The catheters mounted in this manner were pulled through the tubing system and the weight changes measured by the balance, which represented the traction work load achieved for the passage of the catheter, was recorded continuously. These readings were integrated over time. The resultant values allow estimation of the total shear force that occurred during the passage of the catheter through the tubing system.

[2] = tested on: cortical neurons; assay: Hypoxia and reperfusion of cortical neurons (viability, LDH); settings: for results of the hypoxia experiments compared with reference nitrated phospholipids: neurons and cardiac myocytes, 10 to 50 μmol/l
Description: To determine whether the membrane-stabilizing properties of nitrated phospholipids can lead to attenuation of effects due to an ischemic event or the re-perfusion damage, cortical neurons and cardiac myocytes were investigated.
Freshly prepared cortex tissue was separated with Papain and tissue suspensions were cultured in culture vessels (Prim ARA; BD Biosciences, USA) with Neurobasal A/B27 medium (Invitrogen) for 10-12 days. Cell suspensions were divided, and replenished with suspensions of the natural phospholipids SOPC and PLPC, as well as the analogue phospholipids with nitration of unsaturated fatty acids (1-stearoyl-2-(9-nitrooleoyl)-sn-PC and 1-palmitoyl-2-(9-nitrolinoleoyl)-sn-PC) at concentrations of 10 to 50 μmol/l in NaCl (0.9%) were added. […] After 4 hours, the cells were washed three times with buffered saline and buffered NaCl solution with the addition of MgCl2 and CaCl2 in an anaerobic atmosphere (85% N2, 5% O2, 10% CO2; at 35° C.) for 10 and 30 minutes. Then, the cells were washed once and grown in culture medium under aerobic conditions for 24 hours. […] Cells were stained with annexin V-FITC and propidium iodide (Molecular probes, USA). The vital and necrotic cells were measured by flow cytometry (FACSCalibur, Becton & Dickinson). The volume of culture medium was determined and an aliquot was taken for determination of the LDH (lactate dehydrogenase) concentration.

[3] = Transisomerization of unsaturated fatty acids in coatings on balloon catheters (FTIR); type: physicochemical; settings: for proportion of trans-fatty acids: after heat treatment (60° C., three hours)
Text: The natural phospholipids POPC and SLPE, as well as the analogous nitrated phospholipids as shown in example C(PNOPC) and […]), as well as the phospholipids according to examples […], and S as a mono substance and as a combination of the native phospholipids and the corresponding nitro-carboxylic acid (s)-containing phospholipids mixed in a ratio of 1:1 were used for this investigation. Balloon catheters were coated by means of the Langmuir-Schaefer procedure where the balloon segment was aligned longitudinally and coaxial to the solution surface, dipping into the liquid for approx. 1 mm over the entire length. Then the catheter was slowly rotated around its axis 5 times. […] The solution was cooled and given to the coating solution then. In case of incomplete dissolution of the phospholipids or if they separated when cooled, DMSO was added at a concentration of up to 20 vol.-%, preferably up to 10 vol.-%. After coating, the catheters were vacuum dried for 8 hours in order to remove residual solvent. The abrasion or loss of coating layers was determined by weighing the catheter before and after coating as well as after the mechanical stability test in the tubing system as described above using a high precision balance. In order to examine the long-term stability of the coating, catheters coated with phospholipids were sealed with polyethylene glycol 1000 (Roth, Germany). For that purpose PEG 1000 was melted and mixed with a 10% ethanol solution at 50° C. A portion of the phospholipid-coated balloon catheter was coated by means of dip-coating in this PEG solution at 50° C., and dried thereafter for 8 hours. Stability of cis-conformity of unsaturated fatty acids of the phospholipids investigated was determined after heat treatment at 60° C. for three hours in a heating cabinet. After 24 hours and after 2 months the phospholipids coated on the balloon surface were detached and analyzed. Detachment was carried out in 50 ml of a chloroform:methanol mixture (3:1, v: v). A 10 μl aliquot was used for a FTIR spectroscopy. For this purpose the samples were dropped on a ZnSe ATR crystal and then the solvent was evaporated. Degree of transisomerization was determined using the integral of intensity of proton resonance in comparison to that measured from a cis configuration of the reference substances. Measurements were performed 24 hours after coating, heat treatment and after 2 months of storage at 25° C. under sterile room air conditions.

[4] = tested on: sciatic nerve; assay: Viability of cryopreserved nerve grafts (Annexin-V staining, FACS); type: cell-based, rats; settings: 100 mmolar solution 1 hour; −30° C. 72 hours
[5] = tested on: Cardiac muscle cells derived from neonatal rat heart; assay: Hypoxia of cardiac muscle cells (viability, mitochondrial NAD+); type: cell-based; settings: for mitochondrial NAD+ content: hypoxia, baseline 5
Description: Cardiac muscle cells derived from neonatal rat heart (Nitobe J, et al, Reactive oxygene species regulate FLICE inhibitory protein and susceptibility to FAS-mediated apoptosis in cardiac myocytes. Cardiovasc RES 2003, 119-28). The heart muscle cells were cultured in Dulbecco/Eagle medium (DMEM) with 10% FCS added under standard conditions for two days. Incubation with the natural and nitrated phospholipids, as well as the hypoxia experiments were carried out as described above. Incubated cells were grown in culture medium under standard conditions for 24 hours. This is followed by a vitality staining as described above. […] The frozen cells were thawed up to -4° C. and homogenized for subsequent NAD^+ analyses. By means of differential centrifuge, pellets containing mitochondria were separated (Di Lisa, et al, 1993; Am. J. Physiol. 264, […]-[…]). The NAD^+ content was determined by fluoroscopy, and normalized to the protein content (Veloso, D., and […]., 1974;) Anal. Biochem., 449-450).

[6] = tested on: ovarian tissue strips; assay: Cryopreservation of ovarian tissue strips: intact follicles; settings: liquid nitrogen 14 days, cultured 14 days
[7] = tested on: HeLa, HUVEC and L929 fibroblast; assay: cells; type: cell-based
Description: Physiologically occurring phospholipids can be taken up by virtually all cell lines in large quantities. It is known that phospholipids that contain non-physiologically occurring fatty acid residues can cause cell lyses or death. Three cell lines (HeLa, HUVEC and L929 fibroblast) were cultured in a suitable culture medium of 5% FCS at 37° C. and 5% CO2 concentrations to a subconfluent concentration of 1.5×10^5 cells.
SOPC, DOPC, POPC, ONOPC, PNLPC, and the free fatty acids of OA, LA, NOOA, and NOLA were dissolved in 0.5% DMSO. […] Cell cultures were incubated for 24 h and 48 h. Thereafter, the culture medium was removed and the cells washed twice. Following this, cells suspensions were given in four vials to perform the following analysis:
For the determination of viability, phenol red was added to the suspended cells. After 4 h, the medium was renewed and 10 μl of the MTT solution was added. The cells were cultured for 4 hours, and then a 10% SDS solution was pipetted. After 24 h, absorption of formazan crystals was measured at 500 nm using a power wave X (bio-tek instruments, Inc., USA). For the quantitative comparison of toxicity, the EC50 was determined.

[8] = top coating with PEG, after 2 month

mechanical removal of coating substance and workload to pull the catheter through PTFE tubing [1]: Very similar results
Compound: CCCCCCCCC(O)C(CCCCCCCC(=O)OC[C@H](COP(=O)([O-])OCC[N+](C)(C)C)OC(=O)CCCCCCCC(C(O)CCCCCCCC)[N+](=O)[O-])[N+](=O)[O-] (some centres unmarked) [Example O1, 1,2-di-(9-nitro-10-hydroxy-stearoyl)-sn-3-glycerophosphocholine]
results of the hypoxia experiments compared with reference nitrated phospholipids [2]: slightly worse results

proportion of trans-fatty acids [3]: 86%
degree of transisomerization ([3]; coatings after 2 months): 98%
degree of transisomerization [3, 8]: 92%
Compound: CCCCC/C=C\C/C=C\CCCCCCCC(=O)O[C@H](COC(=O)CCCCCCCCCCCCCCCCC)COP(=O)(O)OCCN [SLPE, 1-Stearoyl-2-linoleoyl-sn-3-glycero-phosphatidylethanolamine, reference compound]
proportion of living cells relative to non-frozen control [4]: 15%

Compound: CCCCC/C=C\C/C=C\CCCCCCCC(=O)O[C@H](COC(=O)CCCCCCCCCCCCCCC)COP(=O)([O-])OCC[N+](C)(C)C [PLPC, 1-Palmitoyl-2-linoleoyl-sn-glycero-3-PC, reference compound]
loss of viability of heart muscle cells after hypoxia ([5]; (10 minutes)): 16%
loss of viability of heart muscle cells after hypoxia ([5]; (30 minutes)): 42%
mitochondrial NAD+ content ([5]; first printed value): 2.4 nmol/mg protein
mitochondrial NAD+ content ([5]; second printed value): 0.7 nmol/mg protein
increase in LDH versus normoxemia culture ([2]; 10-minutes ischemia): 380 fold
viability of cortical cells measured after 24 hours ([2]; 10-minutes ischemia): 30%
increase in LDH versus normoxemia culture ([2]; 30-minutes ischemia): 630 fold
viability of cortical cells measured after 24 hours ([2]; 30-minutes ischemia): 0%

mechanical removal of coating substance and workload to pull the catheter through PTFE tubing [1]: Very similar results
Compound: 1-(5,8,11-eicosatrienoyl)-2-(9-nitro-α-linolenoyl)-sn-3-glycerophosphocholine and 1-(5,8,11-eicosatrienoyl)-2-(10-nitro-α-linolenoyl)-sn-3-glycerophosphocholine [Example P5]
rate of intact follicles relative to the control group [6]: 90%

Compound: 1-erucinyl-2-(9-nitrogadoleoyl)-sn-3-glycerophosphocholine and 1-erucinyl-2-(10-nitrogadoleoyl)-sn-3-glycerophosphocholine [Example P3]
proportion of living cells relative to non-frozen control [4]: 90%
rate of intact follicles relative to the control group [6]: 97%

Compound: 1-Palmitoyl-2-(10-hydroxy-9-nitro-α-linolenoyl)-sn-3-glycerophosphocholine and 1-palmitoyl-2-(9-hydroxy-10-nitro-α-linolenoyl)-sn-3-glycerophosphocholine [Example O6]
proportion of living cells relative to non-frozen control [4]: 78%
results of the hypoxia experiments compared with reference nitrated phospholipids [2]: slightly worse results

Compound: 1,2-di-(hydroxyl, nitro-8,11,14,17-eicosatetraenoyl)-sn-3-glycerophosphocholine [Example O5]
results of the hypoxia experiments compared with reference nitrated phospholipids [2]: slightly worse results

Compound: CCCCCCCC/C=C(\CCCCCCCC(=O)O[C@H](COC(=O)CCCCCCCCCCCCCCC)COP(=O)([O-])OCC[N+](C)(C)C)[N+](=O)[O-] [Example C, (E)-1-Palmitoyl-2-(9-nitrooleoyl)-sn-3-glycerophosphocholine]
proportion of trans-fatty acids [3]: 25%
degree of transisomerization ([3]; coatings after 2 months): 30%
degree of transisomerization [3, 8]: 32%
results of the hypoxia experiments compared with reference nitrated phospholipids [2]: did not show relevant differences

Compound: CC/C=C(\C/C=C\C/C=C\CCCCCCCC(=O)OC[C@H](COP(=O)([O-])OCC[N+](C)(C)C)OC(=O)CCCCCCC/C=C\C/C=C\C/C(=C\CC)[N+](=O)[O-])[N+](=O)[O-] [Example N20, 1,2-di-(E-15-nitro-α-linolenoyl)-sn-3-glycerophosphocholine]
proportion of living cells relative to non-frozen control [4]: 82%

Compound: 1-eicosapentaenoyl-2-(5-nitro-EPA)-sn-3-glycerophosphocholine and 1-eicosapentaenoyl-2-(6-nitro-EPA)-sn-3-glycerophosphocholine [Example P4]
proportion of living cells relative to non-frozen control [4]: 74%
rate of intact follicles relative to the control group [6]: 93%

Compound: 1-Palmitoyl-2-(E-9-nitrooleoyl)-sn-3-glycero-phosphatidylinositol [PNOPI]
proportion of living cells relative to non-frozen control [4]: 82%

mechanical removal of coating substance and workload to pull the catheter through PTFE tubing [1]: Very similar results
Compound: 1,2-di-(9-nitrolinoleoyl)-sn-3-glycerophosphocholine, 1,2-di-(10-nitrolinoleoyl)-sn-3-glycerophosphocholine, 1-(9-nitrolinoleoyl)-2-(10-nitrolinoleoyl)-sn-3-glycerophosphocholine and 1-(10-nitrolinoleoyl)-2-(9-nitrolinoleoyl)-sn-3-glycerophosphocholine [Example N1]
rate of intact follicles relative to the control group [6]: 93%

Compound: CCCCCCCC/C=C\CCCCCCCC(=O)OC[C@H](COP(=O)([O-])OCC[N+](C)(C)C)OC(=O)CCCCCCC/C(=C\CCCCCCCC)[N+](=O)[O-] [Example P15, 1-oleoyl-2-(E-9-nitrooleoyl)-sn-3-glycerophosphocholine]
total viability (MTT assay) [7]: 83%
EC50 ([7]; after 48 hours, range over cell lines, read-out: EC50 (MTT assay)): 800 to 5000 µM

Compound: 1-oleoyl-2-(9-nitropalmitoleoyl)-sn-3-glycerophosphocholine and 1-oleoyl-2-(10-nitropalmitoleoyl)-sn-3-glycerophosphocholine [Example P1]
proportion of living cells relative to non-frozen control [4]: 90%

Compound: 1,2-di-(9-nitrogadleoyl)-sn-3-glycerophosphocholine, 1,2-di-(10-nitrolinoleoyl)-sn-3-glycerophosphocholine, 1-(9-nitrolinoleoyl)-2-(10-nitrogadoleoyl)-sn-3-glycerophosphocholine and 1-(10-nitrogadoleoyl)-2-(9-nitrogadoleoyl)-sn-3-glycerophosphocholine [Example N9]
proportion of living cells relative to non-frozen control [4]: 79%
rate of intact follicles relative to the control group [6]: 90%

Compound: 1,2-di-(5-nitroeicosapentaenoyl)-sn-3-glycerophosphocholine, 1,2-di-(6-nitroeicosapentaenoyl)-sn-3-glycerophosphocholine, 1-(5-nitroeicosapentaenoyl)-2-(6-nitroeicosapentaenoyl)-sn-3-glycerophosphocholine and 1-(6-nitroeicosapentaenoyl)-2-(5-nitroeicosapentaenoyl)-sn-3-glycerophosPhocholine [Example N10]
proportion of living cells relative to non-frozen control [4]: 82%
rate of intact follicles relative to the control group [6]: 98%
